Assays:
Assay type in all cases: cell-based
[1] = test system: MDA-MB-231 (breast cancer); experiment: MTT antiproliferative assay, MDA-MB-231; settings: Homo sapiens, MDA-MB-231, 10 μM, 48 or 72 h, read-out: inhibition of cell growth, MDA-MB-231
Procedure: (§1) The antiproliferative activity of a test compound was determined in cell lines: MDA-MB-231 (breast cancer), HepG2 (liver cancer), SW620 (colon cancer), A375 (malignant melanoma), A431 (epidermoid carcinoma), A549 (lung adenocarcinoma), and HeLa ([…]). MDA-MB-231, HepG2, SW480, SW620, A375, and A431 cells were cultured in Dulbecco's modified Eagle's medium (DMEM) containing 10% fetal bovine serum (FBS). HeLa cells were cultured in MEM/EBSS (MEM) containing 10% FBS. A549 cells were maintained in Kaighn's modification of Ham's F-12 medium containing 10% FBS. The colorimetric MTT (3-(4,5-dimethylthiazol-2-yl)-2,5-diphenyltetrazolium bromide) assay was used to measure the cell viability of different cells following treatment with the test compound.
(§2) Briefly cells were seeded in a 96 well plate at a density of 2,000-5,000 cells/well. Following attachment, the cells were treated with the test compound in media at various concentrations ranging from 0.137 to 100 μM or at a single concentration of 10 μM. After the cells were incubated at 37° C. for 48 or 72 h, MTT (20 μL, 5 mg/mL in PBS) was added to each well and the cells were incubated for another 4 h at 37° C. The supernatant was removed carefully and 150 μL of DMSO was added to each well to dissolve the MTT formazan crystals. The plate was shaken for 15-20 min and the absorbance value of each well was determined using a multi-well plate reader at 490 nm. The wells treated with DMSO were taken as a vehicle control. Data were also obtained similarly for all the replicates and the percentage viability was determined with respect to the DMSO-treated cells. The results are summarized in Table 1 below, wherein A represents no less than 80% inhibition of cell growth at 10 μM; B represents no less than 50% but less than 80% inhibition of cell growth at 10 μM; C represents no less than 30% but less than 50% inhibition of cell growth at 10 μM; and D represents less than 30% inhibition of cell growth at 10 μM.

[2] = test system: A375 (malignant melanoma); experiment: MTT antiproliferative assay, A375; settings: Homo sapiens, A-375, A375, 10 μM, 48 or 72 h, read-out: inhibition of cell growth, A375
Procedure: as §1, §2

HeLa (ovarian cancer) = experiment: MTT antiproliferative assay, HeLa; settings: Homo sapiens, 48 or 72 h, read-out: inhibition of cell growth, HELA
Procedure: as §1, §2

SW620 (colon cancer) = experiment: MTT antiproliferative assay, SW620; settings: Homo sapiens, SW-620, SW620, 10 μM, 48 or 72 h, read-out: inhibition of cell growth, SW620
Procedure: as §1, §2

[3] = test system: A431 (epidermoid carcinoma); experiment: MTT antiproliferative assay, A431; settings: Homo sapiens, A-431, A431, 10 μM, 48 or 72 h, read-out: inhibition of cell growth, A431
Procedure: as §1, §2

[4] = test system: A549 (lung adenocarcinoma); experiment: MTT antiproliferative assay, A549; settings: Homo sapiens, A549, 10 μM, 48 or 72 h, read-out: inhibition of cell growth, A549
Procedure: as §1, §2

HepG2 (liver cancer) = experiment: MTT antiproliferative assay, HepG2; settings: Homo sapiens, HepG2, 10 μM, 48 or 72 h, read-out: inhibition of cell growth, HepG2
Procedure: as §1, §2

COC1(C)C2=CC=C3[C@@](C)(CC[C@@]4(C)[C@@H]5C[C@](C)(C(=O)O)CC[C@]5(C)CC[C@]34C)C2=CC(=O)C1CC#N (stereo in doubt) [Compound A38, (2R,4aS,6aS,9S,12bR,14aS,14bR)-10-(cyanomethyl)-9-methoxy-2,4a,6a,9,12b,14a-hexamethyl-11-oxo-1,2,3,4,4a,5,6,6a,9,10,11,12b,13,14,14a,14b-hexadecahydropicene-2-carboxylic acid]
inhibition at 10 µM [1]: 30 to 50%
inhibition at 10 µM [2]: 30 to 50%
inhibition at 10 µM (HeLa (ovarian cancer)): ≥ 80%
inhibition at 10 µM (SW620 (colon cancer)): 50 to 80%
inhibition at 10 µM [3]: 30 to 50%
inhibition at 10 µM [4]: < 30%
inhibition at 10 µM (HepG2 (liver cancer)): < 30%

[2H]C([2H])([2H])O[C@]1(C)C(=O)C(=O)C=C2C1=CC=C1[C@@]2(C)CC[C@@]2(C)[C@@H]3C[C@](C)(C(=O)O)CC[C@]3(C)CC[C@]12C [Compound A2, (2R,4aS,6aS,9S,12bR,14aS,14bR)-9-(methoxy-d3)-2,4a,6a,9,12b,14a-hexamethyl-10,11-dioxo-1,2,3,4,4a,5,6,6a,9,10,11,12b,13,14,14a,14b-hexadecahydropicene-2-carboxylic acid]
inhibition at 10 µM [1]: 50 to 80%
inhibition at 10 µM [2]: 30 to 50%
inhibition at 10 µM (HeLa (ovarian cancer)): ≥ 80%
inhibition at 10 µM (SW620 (colon cancer)): 30 to 50%
inhibition at 10 µM [3]: 50 to 80%
inhibition at 10 µM [4]: 30 to 50%
inhibition at 10 µM (HepG2 (liver cancer)): 50 to 80%

CC(=O)OC1(C)C(=O)C(=O)C=C2C1=CC=C1[C@@]2(C)CC[C@@]2(C)[C@@H]3C[C@](C)(C(=O)O)CC[C@]3(C)CC[C@]12C (stereo partly drawn) [Compound A3, (2R,4aS,6aS,12bR,14aS,14bR)-9-(acetyloxy)-2,4a,6a,9,12b,14a-hexamethyl-10,11-dioxo-1,2,3,4,4a,5,6,6a,9,10,11,12b,13,14,14a,14b-hexadecahydropicene-2-carboxylic acid]
inhibition at 10 µM [1]: < 30%
inhibition at 10 µM [2]: < 30%
inhibition at 10 µM (HeLa (ovarian cancer)): 50 to 80%
inhibition at 10 µM (SW620 (colon cancer)): < 30%
inhibition at 10 µM [3]: ≥ 80%
inhibition at 10 µM [4]: 50 to 80%
inhibition at 10 µM (HepG2 (liver cancer)): < 30%

COC(=O)[C@]1(C)CC[C@]2(C)CC[C@]3(C)C4=CC=C5C(=CC(=O)C(=O)C5(C)c5c[nH]c6ccccc56)[C@]4(C)CC[C@@]3(C)[C@@H]2C1 (stereo partly drawn) [Compound A4, methyl (2R,4aS,6aS,12bR,14aS,14bR)-9-(1H-indol-3-yl)-2,4a,6a,9,12b,14a-hexamethyl-10,11-dioxo-1,2,3,4,4a,5,6,6a,9,10,11,12b,13,14,14a,14b-hexadecahydropicene-2-carboxylate]
inhibition at 10 µM [1]: 30 to 50%
inhibition at 10 µM [2]: 50 to 80%
inhibition at 10 µM (HeLa (ovarian cancer)): ≥ 80%
inhibition at 10 µM (SW620 (colon cancer)): 50 to 80%
inhibition at 10 µM [3]: ≥ 80%
inhibition at 10 µM [4]: 50 to 80%
inhibition at 10 µM (HepG2 (liver cancer)): 50 to 80%

COC(=O)[C@]1(C)CC[C@]2(C)CC[C@]3(C)C4=CC=C5C(=CC(=O)C(=O)[C@@]5(C)OC)[C@]4(C)CC[C@@]3(C)[C@@H]2C1 [Compound A5, methyl (2R,4aS,6aS,9S,12bR,14aS,14bR)-9-methoxy-2,4a,6a,9,12b,14a-hexamethyl-10,11-dioxo-1,2,3,4,4a,5,6,6a,9,10,11,12b,13,14,14a,14b-hexadecahydropicene-2-carboxylate]
inhibition at 10 µM [1]: ≥ 80%
inhibition at 10 µM [2]: 50 to 80%
inhibition at 10 µM (HeLa (ovarian cancer)): ≥ 80%
inhibition at 10 µM (SW620 (colon cancer)): 50 to 80%
inhibition at 10 µM [3]: ≥ 80%
inhibition at 10 µM [4]: 30 to 50%
inhibition at 10 µM (HepG2 (liver cancer)): ≥ 80%

CO[C@]1(C)C(=O)C(=O)C=C2C1=CC=C1[C@@]2(C)CC[C@@]2(C)[C@@H]3C[C@](C)(C(=O)On4nnc5ccccc54)CC[C@]3(C)CC[C@]12C [Compound A6, 1H-1,2,3-benzotriazol-1-yl (2R,4aS,6aS,9S,12bR,14aS,14bR)-9-methoxy-2,4a,6a,9,12b,14a-hexamethyl-10,11-dioxo-1,2,3,4,4a,5,6,6a,9,10,11,12b,13,14,14a,14b-hexadecahydropicene-2-carboxylate]
inhibition at 10 µM [1]: 50 to 80%
inhibition at 10 µM [2]: 30 to 50%
inhibition at 10 µM (HeLa (ovarian cancer)): ≥ 80%
inhibition at 10 µM (SW620 (colon cancer)): 50 to 80%
inhibition at 10 µM [3]: 50 to 80%
inhibition at 10 µM [4]: 50 to 80%
inhibition at 10 µM (HepG2 (liver cancer)): ≥ 80%

CO[C@]1(C)C(=O)C(=O)C=C2C1=CC=C1[C@@]2(C)CC[C@@]2(C)[C@@H]3C[C@](C)(C(=O)F)CC[C@]3(C)CC[C@]12C [Compound A8, (2R,4aS,6aS,9S,12bR,14aS,14bR)-9-methoxy-2,4a,6a,9,12b,14a-hexamethyl-10,11-dioxo-1,2,3,4,4a,5,6,6a,9,10,11,12b,13,14,14a,14b-hexadecahydropicene-2-carbonyl fluoride]
inhibition at 10 µM [1]: 50 to 80%
inhibition at 10 µM [2]: 30 to 50%
inhibition at 10 µM (HeLa (ovarian cancer)): 50 to 80%
inhibition at 10 µM (SW620 (colon cancer)): 50 to 80%
inhibition at 10 µM [3]: ≥ 80%
inhibition at 10 µM [4]: 50 to 80%
inhibition at 10 µM (HepG2 (liver cancer)): ≥ 80%

CCNC(=O)[C@]1(C)CC[C@]2(C)CC[C@]3(C)C4=CC=C5C(=CC(=O)C(=O)[C@@]5(C)OC)[C@]4(C)CC[C@@]3(C)[C@@H]2C1 [Compound A10, (2R,4aS,6aS,9S,12bR,14aS,14bR)—N-ethyl-9-methoxy-2,4a,6a,9,12b,14a-hexamethyl-10,11-dioxo-1,2,3,4,4a,5,6,6a,9,10,11,12b,13,14,14a,14b-hexadecahydropicene-2-carboxamide]
inhibition at 10 µM [1]: ≥ 80%
inhibition at 10 µM [2]: 30 to 50%
inhibition at 10 µM (HeLa (ovarian cancer)): ≥ 80%
inhibition at 10 µM (SW620 (colon cancer)): 50 to 80%
inhibition at 10 µM [3]: 50 to 80%
inhibition at 10 µM [4]: 30 to 50%
inhibition at 10 µM (HepG2 (liver cancer)): 50 to 80%

CO[C@]1(C)C(=O)C(=O)C=C2C1=CC=C1[C@@]2(C)CC[C@@]2(C)[C@@H]3C[C@](C)(C(=O)OCc4ccccc4)CC[C@]3(C)CC[C@]12C [Compound A11, benzyl (2R,4aS,6aS,9S,12bR,14aS,14bR)-9-methoxy-2,4a,6a,9,12b,14a-hexamethyl-10,11-dioxo-1,2,3,4,4a,5,6,6a,9,10,11,12b,13,14,14a,14b-hexadecahydropicene-2-carboxylate]
inhibition at 10 µM [1]: ≥ 80%
inhibition at 10 µM [2]: 50 to 80%
inhibition at 10 µM (HeLa (ovarian cancer)): ≥ 80%
inhibition at 10 µM (SW620 (colon cancer)): ≥ 80%
inhibition at 10 µM [3]: < 30%
inhibition at 10 µM [4]: < 30%
inhibition at 10 µM (HepG2 (liver cancer)): ≥ 80%

CCCNC(=O)[C@]1(C)CC[C@]2(C)CC[C@]3(C)C4=CC=C5C(=CC(=O)C(=O)[C@@]5(C)OC)[C@]4(C)CC[C@@]3(C)[C@@H]2C1 [Compound A12, (2R,4aS,9S,6aS,12bR,14aS,14bR)—N-propyl-9-methoxy-2,4a,6a,9,12b,14a-hexamethyl-10,11-dioxo-1,2,3,4,4a,5,6,6a,9,10,11,12b,13,14,14a,14b-hexadecahydropicene-2-carboxamide]
inhibition at 10 µM [1]: 50 to 80%
inhibition at 10 µM [2]: 30 to 50%
inhibition at 10 µM (HeLa (ovarian cancer)): ≥ 80%
inhibition at 10 µM (SW620 (colon cancer)): 50 to 80%
inhibition at 10 µM [3]: ≥ 80%
inhibition at 10 µM [4]: ≥ 80%
inhibition at 10 µM (HepG2 (liver cancer)): ≥ 80%

CO[C@]1(C)C(=O)C(=O)C=C2C1=CC=C1[C@@]2(C)CC[C@@]2(C)[C@@H]3C[C@](C)(C(=O)N(C)C)CC[C@]3(C)CC[C@]12C [Compound A13, (2R,4aS,6aS,9S,12bR,14aS,14bR)-9-methoxy-N,N,2,4a,6a,9,12b,14a-octamethyl-10,11-dioxo-1,2,3,4,4a,5,6,6a,9,10,11,12b,13,14,14a,14b-hexadecahydropicene-2-carboxamide]
inhibition at 10 µM [1]: ≥ 80%
inhibition at 10 µM [2]: 30 to 50%
inhibition at 10 µM (HeLa (ovarian cancer)): ≥ 80%
inhibition at 10 µM (SW620 (colon cancer)): ≥ 80%
inhibition at 10 µM [3]: ≥ 80%
inhibition at 10 µM [4]: ≥ 80%
inhibition at 10 µM (HepG2 (liver cancer)): ≥ 80%
